How the values were obtained:
[1] = test system: human ES cell-derived neural progenitor cells; assay: Quantitative PCR transcriptional profile after differentiation with retinoic acid
[2] = test system: human ES cell-derived FOXA2 expressing neural progenitor cells; assay: Immunocytochemistry and cell counts of FOXA2 expressing DA neurons at DIV49; type: cell-based
Method: Media were changed every 2 days.
Neural progenitor cells were differentiated toward the DA neuron phenotype with mouse sonic hedgehog (Shh-N), human activated sonic hedgehog (C24II SHH-N), mouse fibroblast growth factor 8b (FGF8b), human FGF8A (all from R&D Systems, Inc.), 20 ng/ml brain derived neurotrophic factor (BDNF) (PeproTech EC Ltd), 1 ng/ml transforming growth factor type β3 (TGF-β3) (Calbiochem, San Diego, Calif.), 10 ng/ml glial cell line-derived neurotrophic factor (GDNF), 0.5 mM dibutyryl cAMP, and 0.2 mM ascorbic acid (AA) (all from Sigma-Aldrich). After 21 days (Day 35) cells were passaged using Tryple (Invitrogen Corporation) and spun at 1,000 rpm for 5 minutes. Cells were resuspended in N2 medium and plated again at a density of approximately 1,000,000-2,000,000 cells per well (24 well plate) on polyornithine/laminin-coated dishes in the presence of BDNF, AA, SHH, and FGF8. After an additional 7 days of culture (DIV42), cells were differentiated until Day 49 without SHH and FGF8 but in the presence of BDNF, AA, cAMP, GDNF, and TGF-β3.
Cells were fixed in 4% paraformaldehyde and analyzed by indirect immunofluorescence (Sonntag et al., 2005). Fluorescent signals were examined using an LSM510 Meta confocal microscope equipped with ultraviolet, argon, and helium-neon lasers (Carl Zeiss, Thornwood, N.Y.). […]
Quantitative analysis of immunocytochemistry was performed on randomly selected confocal fields from at least two independent differentiation experiments. In each field, images of separate channels (Hoechst, 488, 568, 594) were acquired at 40× magnification on an integrated confocal microscope (LSM510/Meta, Carl Zeiss) and stereology workstation (StereoInvestigator, MBF Bioscience, Inc., Williston, Vt.), where images of cells in independent channels and merged images were counted.

Molecule: CC1=C(/C=C/C(C)=C/C=C/C(C)=C/C(=O)O)C(C)(C)CCC1 [RA, all-trans retinoic acid]
- OTX2, PAX2 and HOXB1 levels ([1]; 10^-6 M and 10^-7 M RA, 22 days of differentiation, relative to conditions without RA): reduced OTX2 and PAX2 levels and increased HOXB1 levels
- increase of expression levels of the midbrain transcription factor EN1 ([1]; 10^-8 M RA, 22 days of differentiation, relative to conditions without RA): more than 2000 fold
- expression levels of the ventral neural transcription factor FOXA2 ([1]; all RA conditions tested (0, 10^-6 to 10^-9 M)): consistently low

B1: WNT1: secreted signaling protein encoded by the human WNT1 proto-oncogene; recombinant (protein, UniProt P04628 28-370, looked up)
Proto-oncogene Wnt-1: ANSSGRWWGIVNVASSTNLLTDSKSLQLVLEPSLQLLSRKQRRLIRQNPGILHSVSGGLQSAVRECKWQFRNRRWNCPTAPGPHLFGKIVNRGCRETAFIFAITSAGVTHSVARSCSEGSIESCTCDYRRRGPGGPDWHWGGCSDNIDFGRLFGREFVDSGEKGRDLRFLMNLHNNEAGRTTVFSEMRQECKCHGMSGSCTVRTCWMRLPTLRAVGDVLRDRFDGASRVLYGNRGSNRASRAELLRLEPEDPAHKPPSPHDLVYFEKSPNFCTYSGRLGTAGTAGRACNSSSPALDGCELLCCGRGHRTRTQRVTERCNCTFHWCCHVSCRNCTHTRVLHECL
- cells coexpressing FOXA2, TH and β-tubulin ([2]; DIV49, cultures grown without WNT1 during first 14 days): did not contain cells that coexpressed FOXA2, TH, and β-tubulin

B2: Noggin: recombinant Noggin protein (R&D Systems) (protein, UniProt Q13253 28-232, looked up)
Noggin: QHYLHIRPAPSDNLPLVDLIEHPDPIFDPKEKDLNETLLRSLLGGHYDPGFMATSPPEDRPGGGGGAAGGAEDLAELDQLLRQRPSGAMPSEIKGLEFSEGLAQGKKQRLSKKLRRKLQMWLWSQTFCPVLYAWNDLGSRFWPRYVKVGSCFSKRSCSVPEGMVCKPSKSVHLTVLRWRCQRRGGQRCGWIPIQYPIISECKCSC
- cells coexpressing FOXA2, TH and β-tubulin ([2]; DIV49, cultures grown with Noggin alone during first 14 days): did not contain cells that coexpressed FOXA2, TH, and β-tubulin
- cells coexpressing FOXA2, TH and β-tubulin ([2]; DIV49, cultures grown with or without Noggin during first 14 days (with WNT1)): contained cells that coexpressed FOXA2, TH and β-tubulin
